The source of these data is US9371539B2, “DNA encoding ring zinc-finger protein and the use of the DNA in vectors and bacteria and in plants” (Board of Trustees of Michigan State University, priority 2006, dated 2016).

The test system of assay [1] is AtNCED3. The experiment in a line: RNA gel blot analysis of response to ABA treatment. Format: in vivo, Arabidopsis thaliana. Particulars: 10 μM ABA up to 24 hour; both wild-type and 35S::XERICO plants. The method, then: (a) RNA gel blot analysis showing a response to ABA. Wild-type (WT) and 35S::XERICO plants were grown on MS nutrient agar media for 10 days and then treated with 10 μM of ABA for up to 24 hour. Total RNA was isolated at the indicated times after treatment. Each lane was loaded with 10 μg total RNA. The RNA blot was hybridized with [^32P]-labeled gene specific probes for AtNCED3 (SEQ ID NO:452), AtCYP707A2 (SEQ ID NO:428) and RD29a (SEQ ID NO:386). Probing with Actin 8 (SEQ ID NO:455) was used as a RNA loading control. (b) RNA gel blot analysis in response to drought treatment. Wild-type (WT) and 35S::XERICO plants were grown on MS medium for 14 days and then dehydrated (see, EXAMPLE I).
Total RNA was extracted using the Trizol reagent method (Gibco-BRL, Gaithersburg, Md.). For northern blot analysis, 10 μg of total RNA from each sample was denatured and separated using a 1% agarose-formaldehyde gel. RNA was transferred onto a Hybond-N+ membrane (Stratagene, La Jolla, Calif.) by capillary action. Gene-specific probes were prepared by PCR and labeled with [^32P]-dCTP using a Prime-it II Random Primer Labeling kit (Stratagene, La Jolla, Calif.). […]

The subject of assay [2] is Arabidopsis thaliana. The experiment in a line: Effect of ABA on seed germination (radicle emergence >1 mm). It is filed as in vivo. As for the experimental part:
(§1) Arabidopsis thaliana, ecotype Columbia (Col), was used as the wild-type plant for phenotypic assays for comparison to transgenic 35S::XERICO Arabidopsis thaliana, plants in these experiments. Unless noted otherwise, plants were grown under sterile conditions on MS nutrient agar media (1×MS basal medium (Sigma, stock number M5519) with 2% sucrose and 0.3% phytagel (Sigma) containing 2% sucrose or on soil in a growth chamber (16 h light/8 h dark) at 23° C., after stratification. For monitoring of hypocotyl elongation and root growth with response salt/osmotic stress, a minimum of 20 seeds were sowed on MS nutrient agar media containing specified treatments, following which the plates were held in the vertical position for 7 days. For testing the effects of ABA on germination and early seedling growth, seeds were grown horizontally. For abiotic stress treatments, wild-type seedlings were grown on MS nutrient agar media containing 2% sucrose for 10-days and then treated the stresses indicated in FIG. 1, for up to 24 hour without a treatment control. Samples were collected at the indicated time and frozen immediately in liquid N2 and were stored at −80° C. until use. Experiments were performed in triplicates and repeated at least three times.
(§2) Since the hypersensitivity to salt or osmotic stress was the most prominent phenotype of the three independent T3 homozygous lines of 35S::XERICO plants, the functional relationship of the gene with ABA, a plant stress hormone involved in salt and drought stress adaptation, was investigated. […] Although 35S::XERICO plants germinated slightly later than wild-type even in the absence of exogenous ABA (FIG. 3c), germination was further delayed following ABA treatment. At 0.1 μM of ABA, 13% of 35S::XERICO plants were germinated 1.5 day after sowing, while 43% of wild-type seeds germinated. […] Germination was scored by the emergence of a radicle (>1 mm). The number of ‘cotyledon opening’ of seedlings at five days after sowing were counted and recorded. […]

Assay [3] deals with Arabidopsis thaliana. Description: Effect of ABA on early seedling growth and cotyledon opening. It is filed as in vivo. As for the experimental part: as §1, §2
Assay [4] deals with XERICO. Description: Expression of XERICO upon ABA treatment. It is filed as in vivo, Arabidopsis thaliana. Particulars: ABA 10 μM; up to 3-hours post-treatment. The method, then: Total RNA was extracted using the Trizol reagent method (Gibco-BRL, Gaithersburg, Md.). For northern blot analysis, 10 μg of total RNA from each sample was denatured and separated using a 1% agarose-formaldehyde gel. RNA was transferred onto a Hybond-N+ membrane (Stratagene, La Jolla, Calif.) by capillary action. Gene-specific probes were prepared by PCR and labeled with [^32P]-dCTP using a Prime-it II Random Primer Labeling kit (Stratagene, La Jolla, Calif.). Primers used in this analysis were following: XERICO (forward; SEQ ID NO:439, 5′-[…]-3 and reverse; SEQ ID NO:440, 5′-[…]-3′), AtNCED3 (forward, SEQ ID NO:441, 5′-[…]-3′ and reverse; SEQ ID NO:442, 5′-[…]-3′), AtCYP707A2 (forward; SEQ ID NO:443, 5′-[…]-3′ and reverse; SEQ ID NO:444, 5′-[…]-3′), RD29a (forward; SEQ ID NO:445, 5′-[…]-3′ and reverse; SEQ ID NO:446, 5′-[…]-3′), and Actin 8 (forward; SEQ ID NO:447, 5′-[…]-3′ and reverse; SEQ ID […], 5′-[…]-3′). Hybridization was carried out using ULTRAhyb® according to the manufacturer's instructions (Ambion, Austin, Tex.), and a Kodak Biomax film (Sigma) was exposed to the blot. An Actin 8 gene (SEQ ID NO:457) or ethidium bromide-stained ribosomal RNA was used as a loading control.

For assay [5], the target named is T1, AtTLP9 (Arabidopsis thaliana, UniProt Q9SQU1).
T1 construct: expressed in transfected cells; host or cells: yeast strain AH109
T1 sequence (Q9SQU1 1-380): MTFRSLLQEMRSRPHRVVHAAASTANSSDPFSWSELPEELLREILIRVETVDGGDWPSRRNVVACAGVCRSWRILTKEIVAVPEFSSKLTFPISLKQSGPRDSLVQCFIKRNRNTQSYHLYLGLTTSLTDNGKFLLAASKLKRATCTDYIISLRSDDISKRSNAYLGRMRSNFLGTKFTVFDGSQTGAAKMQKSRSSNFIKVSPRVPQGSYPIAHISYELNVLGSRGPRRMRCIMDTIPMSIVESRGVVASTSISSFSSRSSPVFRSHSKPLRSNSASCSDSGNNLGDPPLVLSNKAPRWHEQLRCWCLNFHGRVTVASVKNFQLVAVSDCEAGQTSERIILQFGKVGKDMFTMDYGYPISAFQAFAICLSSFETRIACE
The experiment in a line: Yeast two-hybrid screening. It is filed as binding. The following applies: yeast AH109; truncated XERICO without transmembrane domain as bait. As for the experimental part: (§3) Two-hybrid screening was performed using the BD Matchmaker™ library construction and screening kit (Clonetech, Palo Alto, Calif.); pGADT7 was used as the base for a GAL4 activation domain (AD) vector and pGBKT7 was used for a GAL4 DNA-binding domain (DNA-BD) vector (pGADT7 and pGBKT7 were obtained from “BD Matchmaker Library Construction & Screening Kits” (Clontech, Palo Alto, Calif.)). The yeast strain AH109 (leu^−, trp^−, Ade^−, his^−) (obtained from “BD Matchmaker Library Construction & Screening Kits (Clontech, Palo Alto, Calif.)) with chromosomally integrated reporter genes lacZ and HIS under the control of the GAL1 promoter activated by the GAL4 transcription factor was used to host all constructs. Truncated XERICO cDNA without a transmembrane domain (SEQ ID NO: 451) was amplified by PCR using primers 5′-[…]-3′ (forward; SEQ ID NO:449) and 5′-[…]-3′ (reverse; SEQ ID NO:450) designed to contain EcoRI and PstI site, respectively. The amplified PCR product was digested with EcoRI and PstI, and subcloned into pGBKT7 as a fusion to the DNA binding domain of GAL4 and verified by sequencing. The pGBKT7/XERICO vector was used as a bait to screen an Arabidopsis thaliana cDNA library in pGADT7 as a fusion to the activation domain of GAL4. […]

In assay [6] the target is T2, AtUBC8 (Arabidopsis thaliana, UniProt P35131).
T2 construct: expressed in transfected cells; host or cells: yeast strain AH109
Description: Yeast two-hybrid screening. The following applies: yeast AH109; truncated XERICO without transmembrane domain as bait. It is filed as binding. As for the experimental part: as §3

T2 sequence (P35131 whole entry): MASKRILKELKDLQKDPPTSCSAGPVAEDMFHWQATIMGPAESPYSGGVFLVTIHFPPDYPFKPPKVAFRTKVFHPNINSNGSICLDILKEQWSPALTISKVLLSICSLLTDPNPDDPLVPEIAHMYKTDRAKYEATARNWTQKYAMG

As to `CC1=CC(=O)CC(C)(C)[C@@]1(O)/C=C/C(C)=C\C(=O)O` [ABA, abscisic acid], the “transcripts of AtNCED3” value in assay [1] is “clearly increased”. Also, in assay [2] (0.1 μM ABA, 1.5 day after sowing, 35S::XERICO plants), the plants germinated stood at 13%. In assay [2] (0.1 μM ABA, 1.5 day after sowing, wild-type seeds), the seeds germinated is recorded as 43%. For the same molecule, in assay [2] (1.0 μM ABA, prolonged incubation, 35S::XERICO plants), the “plants failed to germinate” value was “more than 20%”. Besides, the early seedling growth result in assay [3] (0.1 μM exogenous ABA, three independent lines of 35S::XERICO plants, compared to wild-type) is “arrested immediately after germination”. For the same molecule, the cotyledon opening entry in assay [3] (1 μM ABA, five days after sowing, 35S::XERICO plants) is given as “did not develop a cotyledon”. For the same molecule, the “plants with opened cotyledons” value in assay [3] (1 μM ABA, five days after sowing, wild-type plants) is on record as “approximately 80%”. For the same molecule, in assay [4], the “expression of XERICO” value was “no significant changes”.

B1: XERICO: protein encoded by Arabidopsis thaliana gene AT2G04240; 162 amino acids, RING-H2 zinc-finger motif (protein)
chain: MGLSSLPGPSEGMLCVILVNTALSISIVKGIVRSFLGIVGISLSPSSSSPSSVTVSSENSSTSESFDFRVCQPESYLEEFRNRTPTLRFESLCRCKKQADNECSVCLSKFQGDSEINKLKCGHLFHKTCLEKWIDYWNITCPLCRTPLVVVPEDHQLSSNVW
In the case of B1, the “interaction with AtTLP9” value in assay [5] was “interacts”. Also, the “interaction with AtUBC8” value in assay [6] was “interacts”.
